Test results as given in patent US20050271588A1, “Liposome targeting of matrix metalloproteinase inhibitors” (priority 2001, published 2005).
Positions of bridges follow the written chain, without caps; N, C: chain ends. Residues, ends and D or L forms follow the SMILES beside them.

What was measured:
U937 cells [1] = assay: Uptake of liposome-encapsulated rhodamine B by U937 cells; format: cell-based
Protocol: (§1) In another series of experiments the water-soluble fluorescent marker rhodamine B was encapsulated into liposomes and its uptake by cells was measured. Samples for rhodamine B uptake were prepared by mixing 60 μl of POPC/POPE (80/20, mol/mol, one mM) liposomes containing 10 μM rhodamine B to 300 μl of DMEM medium supplemented with 10% fetal bovine serum, Glutamax I, penicillin 100 U/ml and streptomycin 0.1 mg/ml. Peptides were then added to obtain a final concentration of […]. Ten μl (10^5 cells) of medium containing the indicated cells were combined with the LUVs. After an incubation for 15 min at 37° C. or +4° C. liposomes not bound to the cells were removed from 96-well plates by rinsing three times with cold PBS. The +4° C. temperature served as a control for non-endocytotic liposome uptake by cells (Oess and Hildt, 2000). The relative amount of rhodamine B associated with the cells was determined using microplate reader with excitation at 535 nm and emission at 595 nm.
(§2) We also preincubated cells with phorbol ester (TPA) (50 nM). Preincubation times varied from 15 to 75 min. Treatment of cells by phorbol ester (TPA) increases both expression and secretion of MMP-9 (Toth et al., 1997). Results are presented as RFI=I/I0, where RFI is relative fluorescence intensity, I0 is the emission intensity for the control, 2 μM rhodamine B in LUVs without the peptides, and I is the rhodamine emission for the peptide-liposome complexes taken up by the cells. […] M-17 inhibits the binding of MMP-9 to the substrate and this inhibition is expected to be concentration dependent. It is not known if rabbit polyclonal antibody blocks human MMP-2 (Murphy et al., 1994). Final concentrations of the indicated peptide, Adriamycin, antibodies and liposomes were 85 μM, 0.2 mM, 20 μg/ml, and 0.4 μM, respectively.
Cell cultures and fluorescence microscopy. U937 (ECACC 85011440), HT 1080 (ECACC 85111505), and CHO (ECACC 85050302) cells were cultured in RPMI or DMEM medium supplemented with 10% fetal bovine serum, Glutamax I, penicillin (100 U/ml), and streptomycin (0.1 mg/ml). Uptake of rhodamine B containing liposomes by the cultured cells was verified by fluorescence microscopy. An inverted fluorescence microscope (Zeiss IM 35) equipped with Nikon extra long working distance objectives (20×) and (40×) were used. Samples were prepared as described for the rhodamine uptake assay, with slight modifications. Accordingly, instead of washing, U937, HT 1080, and CHO cells with the rhodamine-containing liposomes and in cell culture medium were transferred into Nunclon 48 plate wells. Excitation and emission wavelengths were selected by suitable bandpass filters (Melles-Griot) transmitting in the range 535 nm and >600 nm, respectively. Fluorescence images were viewed with a Peltier-cooled digital camera (C4742-95, Hamamatsu, Japan) connected to a computer and operated by software (Hipic 5.0) provided by the instrument manufacturer.

[2] = system: HT1080 fibrosarcoma cells; assay: Uptake of liposome-encapsulated rhodamine B by HT1080 cells; format: cell-based, human; settings: for Enhanced liposome uptake: HT1080
Protocol: as §1
as §2, with “It is not known if rabbit polyclonal antibody blocks human MMP-2 (Murphy et al., 1994). Final concentrations of the indicated peptide, Adriamycin, antibodies and liposomes were 85 μM, 0.2 mM, 20 μg/ml, and 0.4 μM, respectively.” left out
Cell cultures and fluorescence microscopy. […] Uptake of rhodamine B containing liposomes by the cultured cells was verified by fluorescence microscopy. An inverted fluorescence microscope (Zeiss IM 35) equipped with Nikon extra long working distance objectives (20×) and (40×) were used. […] Fluorescence images were viewed with a Peltier-cooled digital camera (C4742-95, Hamamatsu, Japan) connected to a computer and operated by software (Hipic 5.0) provided by the instrument manufacturer.

[3] = Trp fluorescence I350/I330 ratio; format: physicochemical
Protocol: Fluorescence spectroscopy. The environments of the tryptophan residues of CTT, STT, CLP, and CWL in liposomes were studied by fluorescence spectroscopy. The center of Trp fluorescence peak is at ˜350 nm when in water, whereas in a hydrophobic environment the emission is centered near 330 nm. Accordingly, changes in the microenvironment of Trp can be monitored by measuring I350/I330, the ratio of the emission at 350 nm to that at 330 nm (Lakowicz, 1999). Tryptophan fluorescence was recorded with a Perkin Elmer LS 50 B spectrofluorometer equipped with a magnetically stirred and thermostated cuvette compartment. […] Excitation and emission bandpasses were 10 nm and 10 nm, respectively. Excitation wavelength was 295 nm, and emission spectra were recorded in the range 300 to 400 nm. […]

MMP-9 = target: T1, MMP-9 (Homo sapiens, UniProt P14780); assay: Gelatinase assay with fluorogenic peptide substrate; format: biochemical; settings: fluorogenic substrate; text says 8 μM 'in both assays'; liposomes 200 μM POPC/POPE
T1 construct: made in house
T1 sequence (P14780 94-707): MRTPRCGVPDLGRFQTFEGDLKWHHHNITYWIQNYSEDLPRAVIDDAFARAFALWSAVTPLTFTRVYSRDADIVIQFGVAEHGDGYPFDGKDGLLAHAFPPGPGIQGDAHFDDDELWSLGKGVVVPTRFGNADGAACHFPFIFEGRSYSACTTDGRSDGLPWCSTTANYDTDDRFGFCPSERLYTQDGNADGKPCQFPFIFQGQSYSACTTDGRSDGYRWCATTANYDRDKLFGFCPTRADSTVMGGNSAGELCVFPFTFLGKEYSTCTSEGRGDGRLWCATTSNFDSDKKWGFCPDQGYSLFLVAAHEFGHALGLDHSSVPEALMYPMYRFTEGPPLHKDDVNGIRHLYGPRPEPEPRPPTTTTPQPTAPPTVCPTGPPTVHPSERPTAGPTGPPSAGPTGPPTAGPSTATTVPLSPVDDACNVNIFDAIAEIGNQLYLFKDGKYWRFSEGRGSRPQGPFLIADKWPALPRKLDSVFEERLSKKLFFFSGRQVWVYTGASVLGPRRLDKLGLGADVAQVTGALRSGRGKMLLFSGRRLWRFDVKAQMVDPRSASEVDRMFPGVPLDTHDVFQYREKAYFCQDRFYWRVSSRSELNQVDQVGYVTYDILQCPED
Protocol: The activity of MMP-9 was measured also using the fluorogenic peptide substrate MCA-Pro-Leu-Ala-Nva-Dpa-Ala-Arg (Calbiochem, San Diego, Calif., USA). More specifically, 50 ng of MMP-9 was preincubated in PBS for 30 min at RT in the absence or presence of CTT or its liposome complex. Subsequently, the fluorogenic substrate was added to a final concentration of 0.1 mM and the incubation was continued at 37° C. for 15 min, whereafter fluorescence intensities were measured with exitation at 340 nm and emission at 390 nm in a microtiter plate reader.

U937 cells [4] = assay: Cell killing by Adriamycin-containing liposomes, EthD-1 viability assay; format: cell-based; settings: U937, 24 h, peptide 85 μM, Adriamycin 0.4 μM
Protocol: Viability assays. Peptide-liposome complexes with the encapsulated adriamycin were made as described above, yielding final concentrations of peptide, lipid, and adriamycin of 85 μM, 0.2 mM, and 0.4 μM, respectively, and were subsequently added to a ten μl (10^5 cells) sample of U937 cells. For the detection of dead cells EthD-1 was used. This fluorophore is membrane-impermeable and emits fluorescence only when bound to DNA (Papadopoulos et al., 1994). Accordingly, EthD-1 readily enters dead cells and binds to their DNA, its fluorescence intensity correlating to the amount of dead cells. EthD-1 emission was measured using microplate reader with excitation at 495 nm and emission at 635 nm. Student's t-test was used to assess statistical significance.

[5] = system: endothelial and tumor cell migration; settings: cited from earlier work
[6] = Penetration of peptides into lipid monolayers (surface pressure); format: physicochemical; settings: eggPC monolayer, peptide 200 μM
Protocol: Interaction of peptides with lipid monolayers. Penetration of peptides into mono-molecular lipid films was measured using magnetically stirred circular wells (subphase volume 400 μl). Surface pressure (π) was monitored with a Wilhelmy wire attached to a microbalance (μ TroughS, Kibron Inc., Helsinki, Finland) connected to a Pentium PC. Lipids were spread on the air-buffer (PBS, pH 7) interface in chloroform (approx. one mg/ml) to different initial surface pressures (π0) and were allowed to equilibrate for 15 min before the addition of the indicated peptides (4 μ1,10 mg/ml in H2O and CWL in DMSO) into the subphase. The increment in π from the initial surface pressures (π0) after the addition of peptide was complete in approximately 20 min and the difference between π0 and the value observed after binding of the peptide into the film was taken as Δπ. All measurements were performed at ambient temperature (˜+24° C.). The data are represented as Δπ vs. […] (Brockman, 1999).

I350/I330 of Trp residue ([3]; in PBS): 1.4
I350/I330 of Trp residue ([3]; presence of LUVs (0.5 mM total phospholipid)): 1.00
IC50 (MMP-9): 8 µM
Initial monolayer packing pressure above which membrane penetration was abolished [6]: 38 mN/m
Structure (SMILES): CC(C)C[C@@H]1NC(=O)[C@H]([C@@H](C)O)NC(=O)[C@H](Cc2ccccc2)NC(=O)CNC(=O)[C@H](Cc2c[nH]c3ccccc23)NC(=O)[C@H](Cc2c[nH]cn2)NC(=O)[C@H]([C@@H](C)O)NC(=O)[C@H]([C@@H](C)O)NC(=O)[C@@H](N)CSSC[C@@H](C(=O)O)NC1=O [CTT] (H-CTTHWGFTLC-OH; disulfide 1-10; N-terminus and C-terminus assumed)
Enhancement of uptake of liposome-encapsulated rhodamine vs liposomes lacking peptide (U937 cells [1]; U937, fluorescence plate-reader): 3.6 fold
Rhodamine intake, fluorescence microscopy (U937 cells [1]; U937, liposomes with vs without CTT): enhanced
Uptake of free rhodamine B (U937 cells [1]; no liposomes): did not promote
Enhanced liposome uptake ([2]; 4° C.): not at 4 °C
Enhanced liposome uptake ([2]; 37° C.): evident only at 37 °C
Rhodamine intake, fluorescence microscopy ([2]; HT 1080, liposomes with vs without CTT): enhanced
Increase in killing of cells vs Adriamycin liposomes without peptide (U937 cells [4]): 4.1 fold
Endothelial and tumor cell migration in vitro [5]: inhibited
